Source: US20180265423A1, “Pesticide Dispersion in Concentrated Aqueous Fertilizer Solution” (priority 2014, published 2018)
Read-outs that look alike come from different tables or passages of the source.

Columns and labels:
[1] = Suspension of clothianidin in 10-34-0 aqueous fertilizer, effect of concentration on stability (Example 3); format: physicochemical; conditions: review of table 4
Experimental: Various amounts of clothianidin were added to 10-34-0 fertilizer. Samples were shaken by hand until homogeneous.

[2] = Storage stability of 40% clothianidin SC in 10-34-0 with wetting agent Witcolate D-510 (Example 5); format: physicochemical; conditions: 10-34-0 with Witcolate D-510
Experimental: The test samples were prepared by adding 60 grams of 10-34-0 fertilizer (from Plant Food) to a bottle. Then various amounts of Witcolate D-510 (2-ethylhexyl sulfate) were added to the 10-34-0 fertilizer and mixed well. Finally, 40 grams of clothianidin (technical grade) was added to the mixture and mixed well by shaking by hand.

[3] = Stability of 50% clothianidin in 50% URAN 32 fertilizer (Example 6); format: physicochemical
Experimental: 0.5 g Witcolate D-510 surfactant was added into 100 g URAN 32 fertilizer solution (50 wt % URAN 32 in water). […] Then 100 g clothianidin was added to the resulting solution and mixed well by hand-shaking. This sample was stable and had about 10% top clear with a smooth bottom suspension after 2 weeks at 40° C.
(§1) In other experiments, 0.3% of a pH adjusting agent (40 wt % Citric acid), was included in the SC sample (homogenized sample) and no noticeable effect was observed on stability. Viscosity measurements were made with a Brookfield viscometer at various speeds (rpm) at room temperature with a #64 spindle. This sample was very viscous but it was highly shear-thinning.

[4] = Brookfield viscosity of 50% clothianidin in 50% URAN 32; format: physicochemical; conditions: #64 spindle
Source text: as §1

[5] = Quick screening of crystal growth potential in fertilizer concentrates and water, solid pesticides containing a carboxylic acid group (Example 2); format: physicochemical; conditions: for suitability for suspension in fertilizer solutions: review of table 3; for Comment: crystal growth: between 0 C. and 40 C.
Experimental: Samples were prepared by adding the components followed by hand-shaking. Samples were placed at 0° C. and observation was made after 1 day, unless otherwise specified.

[6] = as above; format: physicochemical; conditions: 1 wt % powder pesticide, 98 wt % 10-34-0, 1 wt % Witcolate D-510; between 0 C. and 40 C.
[7] = format: physicochemical; conditions: for crystal growth in the fertilizer solutions tested: review of table 2
Source text: Crystal formation in a suspension concentrate is a complex phenomenon. It is believed that if the solubility of the suspended solid chemical is high in the medium, the suspension concentrate is prone to form crystals of the suspended solid chemical in storage. […] The concentrations of the solid pesticides used in this example were low (at a typical ready-to-apply concentration range). If a solid pesticide forms crystals in such a low concentration, it is not suitable for a ready-to-apply pesticide suspension and mostly likely will not be suitable for a more concentrated suspension in fertilizer. […] By “not suitable” is meant that although it may work to some extent, it is not a good candidate for the pesticide SC.
Samples were prepared by adding the components followed by hand-shaking.

[8] = 30 wt % captan suspension in 10-34-0: flow and storage stability (Example 12); format: physicochemical
Experimental: (§2) 10-34-0 fertilizer (56% ammonium polyphosphate by Plant Food Company Inc.) and Phospholan PS-413 surfactant were combined in a container and mixed thoroughly. Captan fungicide was added to the mixture and then the resulting combination was homogenized. The components were added in amounts to provide a composition containing 69.3 wt % of the 10-34-0 fertilizer solution (56% solution), 1.0 wt % surfactant and 29.7 wt % Captan fungicide.

[9] = Use alone, dilution with water or dispersion of the suspensions into fertilizer concentrates; format: physicochemical; conditions: 10-34-0, URAN 32, URAN 28 and 28-40% AMS
[10] = format: physicochemical
Experimental: as §2, with “poly phosphate” for “polyphosphate”, “HE-6614” for “PS-413”, “Trifloxystrobin” for “Captan”, “62.38” for “69.3”, “[…]” for “29.7”

[11] = 1 wt % powder pesticide, 98 wt % 10-34-0, 1 wt % Witcolate D-510
[12] = powder pesticide (glyphosate acid 2, 2,4-D acid 1.3, others 1 wt %) in 10-34-0, no wetting agent
[13] = powder pesticide (glyphosate acid 2, 2,4-D acid 1.3, others 1 wt %) in 10-34-0, no wetting agent, 0° C., 1 day unless otherwise specified
[14] = powder pesticide (glyphosate acid 2, 2,4-D acid 1.3, others 1 wt %) in 40% AMS, no wetting agent, 0° C., 1 day unless otherwise specified
[15] = powder pesticide (glyphosate acid 2, 2,4-D acid 1.3, others 1 wt %) in URAN 32, no wetting agent, 0° C., 1 day unless otherwise specified
[16] = 1 wt % powder pesticide, 98 wt % 40% AMS, 1 wt % Witcolate D-510
[17] = 1 wt % powder pesticide, 98 wt % URAN 32, 1 wt % Witcolate D-510
[18] = 1 wt % powder pesticide, 98 wt % Water, 1 wt % Witcolate D-510
[19] = 1 wt % powder pesticide in 99 wt % 10-34-0, no wetting agent
[20] = 1 wt % powder pesticide in 99 wt % 40% AMS, no wetting agent
[21] = 1 wt % powder pesticide in 99 wt % URAN 32, no wetting agent
[22] = 1 wt % powder pesticide in 99 wt % Water, no wetting agent
[23] = same SC, after a week at 50° C.

## CN/C(=N\[N+](=O)[O-])NCc1cnc(Cl)s1 [clothianidin]
[1]
  suspension of the powder in 10-34-0: without crystal formation and without coagulation
[2]
  clothianidin concentration above which the SC was difficult to prepare: greater than 40 wt %
[3]; 100 g clothianidin, 100 g URAN 32 fertilizer solution, 0.5 g Witcolate D-510, hand-shaking
  stability: stable
[3]; URAN 32, all concentrations
  behaviour of the solid in URAN 32: sank to the bottom at all concentrations
[3]; URAN 32 system
  clothianidin concentration above which a paste resulted: higher than 55 wt %
[3]; same composition, homogenization method
  separation: did not show noticeable separation
[3]; same sample, hand-shaking, after 2 weeks at 40° C.
  top clear: about 10%
[4]; 1 RPM
  Viscosity, mPa-s, 24° C.: 10200 mPa-s
[4]; 2 RPM
  Viscosity, mPa-s, 24° C.: 6900 mPa-s
[4]; 4 RPM
  Viscosity, mPa-s, 24° C.: 3900 mPa-s
[4]; 10 RPM
  Viscosity, mPa-s, 24° C.: 2300 mPa-s
[4]; 20 RPM
  Viscosity, mPa-s, 24° C.: 1500 mPa-s
[4]; 50 RPM
  Viscosity, mPa-s, 24° C.: 1300 mPa-s
[4]; 100 RPM
  Viscosity, mPa-s, 24° C.: 1200 mPa-s

## O=C(O)c1nc(Cl)ccc1Cl [Clopyralid]
[5]; [11]
  Comment: suitability: Suitable
[5]; [12]
  Comment: suitability: Suitable
[5]; [13]
  Comment: crystal growth or other change: No crystal growth
  Comment: dissolution: Not dissolved
  Comment: powder sank or floated: Powder floated
[5]; [14]
  Comment: crystal growth or other change: Crystal growth at room temp
  Comment: dissolution: Not dissolved
  Comment: powder sank or floated: Powder sank
[5]; powder pesticide (glyphosate acid 2, 2,4-D acid 1.3, others 1 wt %) in URAN 32, no wetting agent
  Comment: suitability: Not suitable
[5]; [15]
  Comment: dissolution: Dissolved
[5]; powder pesticide (glyphosate acid 2, 2,4-D acid 1.3, others 1 wt %) in Water, no wetting agent
  Comment: suitability: Not suitable
[5]; powder pesticide (glyphosate acid 2, 2,4-D acid 1.3, others 1 wt %) in Water, no wetting agent, 0° C., 1 day unless otherwise specified
  Comment: dissolution: Dissolved
[5]
  suitability for suspension in fertilizer solutions: may not be suitable
[6]
  Comment: crystal growth: No crystal growth between 0 C.

## Nc1c(Cl)c(Cl)nc(C(=O)O)c1Cl [Picloram]
[5]; [11]
  Comment: suitability: some floated. Suitable
[5]; [16]
  Comment: powder sank or floated: Powder sank
  Comment: suitability: Suitable
  Comment: crystal growth: No crystal growth between 0 C.
[5]; [17]
  Comment: powder sank or floated: Powder sank
  Comment: suitability: Suitable
  Comment: crystal growth: No crystal growth between 0 C.
[5]; [18]
  Comment: powder sank or floated: Powder sank
  Comment: suitability: Suitable
  Comment: crystal growth: No crystal growth between 0 C.
[5]; [12]
  Comment: suitability: Suitable
[5]; [13]
  Comment: crystal growth or other change: No crystal growth between 0 C.
  Comment: powder sank or floated: Powder sank
[5]; powder pesticide (glyphosate acid 2, 2,4-D acid 1.3, others 1 wt %) in 40% AMS, no wetting agent
  Comment: suitability: Suitable
[5]; [14]
  Comment: crystal growth or other change: No crystal growth between 0 C.
  Comment: powder sank or floated: Powder sank
[5]; [15]
  Comment: dissolution: Powder almost dissolved
[5]
  suitability for suspension in fertilizer solutions: appears to be suitable
[6]
  Comment: crystal growth: No crystal growth between 0 C.

## O=C1C2CC=CCC2C(=O)N1SC(Cl)(Cl)Cl (centres unmarked) [Captan]
[7]; [19]
  Comment: powder sank or floated: 0-40 °C Powder sank.
  Comment: suitability: Suitable
[7]; [20]
  Comment: powder sank or floated: 0-40 °C Powder sank.
  Comment: suitability: Suitable
[7]; [21]
  Comment: powder sank or floated: 0-40 °C Powder sank.
  Comment: suitability: Suitable
[7]; [22]
  Comment: powder sank or floated: 0-40 °C Powder sank.
  Comment: suitability: Suitable
[7]
  crystal growth in the fertilizer solutions tested: did not have crystal growth
[8]; 29.7 wt % Captan, 69.3 wt % 10-34-0 solution, 1.0 wt % Phospholan PS-413, homogenized
  flow and stability of the resulting SC: easily flowable and stable
[8]; same SC, 2° C.
  flow at 2° C.: still able to flow
[8]; [23]
  phase separation: no visible phase separation
[9]; 29.7 wt % Captan SC in 10-34-0, gentle stirring
  used alone, diluted with water, dispersed to a fertilizer concentrate: without forming crystals or coagulation

## CON=C(C(=O)OC)c1ccccc1CON=C(C)c1cccc(C(F)(F)F)c1 [Trifloxystrobin]
[7]; [19]
  Comment: powder sank or floated: 0-40 °C Powder sank.
  Comment: suitability: Suitable
[7]; [20]
  Comment: powder sank or floated: 0-40 °C Powder sank.
  Comment: suitability: Suitable
[7]; [21]
  Comment: powder sank or floated: 0-40 °C Powder sank.
  Comment: suitability: Suitable
[7]; [22]
  Comment: powder sank or floated: 0-40 °C Powder sank.
  Comment: suitability: Suitable
[7]
  crystal growth in the fertilizer solutions tested: did not have crystal growth
[10]
  flow and stability of the resulting SC: easily flowable and stable
[10]; same SC, 2° C.
  flow at 2° C.: still able to flow
[10]; [23]
  clear phase at the bottom: less than 2.5%
[10]; same SC, after a week at 50° C., inverting the container
  re-mixing: remixed easily
[9]; 36.63 wt % Trifloxystrobin SC in 10-34-0
  used alone, diluted with water, dispersed to a fertilizer concentrate: without forming crystal and coagulation
